Experimental data reported in PubChem BioAssay AID1963853 (Molecular Pharmacology Branch, DTP, NCI, 2024).

System: 266295-075-R-J1-PDC spheroid viability
Assay: Anticancer human tumor 266295-075-R-J1-PDC patient-derived head and neck squamous carcinoma cell line growth inhibition [POLQ]
Details: spheroids with HUVEC and MSC; for IC50: curve of first compound; for viability, T/C: stronger effect = lower value; active = viability on the fitted dose curve at most 10% of control; inactive = the rest
How it was run: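 Three-cell-type spheroids modelling solid tumor plus stroma served as the readout system; POL inhibitors were tested individually and in combination, concentration ranges set by clinical Cmax where known.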

[1] = second compound 0.0316 µM, first compound 0.0316 µM
[2] = second compound 0.0316 µM, first compound 0.1 µM
[3] = second compound 0.1 µM, first compound 0.0316 µM
[4] = second compound 0.1 µM, first compound 0.1 µM
[5] = second compound 0.316 µM, first compound 0.0316 µM
[6] = second compound 0.316 µM, first compound 0.1 µM
[7] = second compound 1 µM, first compound 0.0316 µM
[8] = second compound 1 µM, first compound 0.1 µM
[9] = second compound 3.16 µM, first compound 0.0316 µM
[10] = second compound 3.16 µM, first compound 0.1 µM
[11] = second compound 10 µM, first compound 0.0316 µM
[12] = second compound 10 µM, first compound 0.1 µM
[13] = second compound 0.0316 µM, first compound 0.316 µM
[14] = second compound 0.0316 µM, first compound 1 µM
[15] = second compound 0.0316 µM, first compound 3.16 µM
[16] = second compound 0.0316 µM, first compound 10 µM
[17] = second compound 0.1 µM, first compound 0.316 µM
[18] = second compound 0.1 µM, first compound 1 µM
[19] = second compound 0.1 µM, first compound 3.16 µM
[20] = second compound 0.1 µM, first compound 10 µM
[21] = second compound 0.316 µM, first compound 0.316 µM
[22] = second compound 0.316 µM, first compound 1 µM
[23] = second compound 0.316 µM, first compound 3.16 µM
[24] = second compound 0.316 µM, first compound 10 µM
[25] = second compound 1 µM, first compound 0.316 µM
[26] = second compound 1 µM, first compound 1 µM
[27] = second compound 1 µM, first compound 3.16 µM
[28] = second compound 1 µM, first compound 10 µM
[29] = second compound 3.16 µM, first compound 0.316 µM
[30] = second compound 3.16 µM, first compound 1 µM
[31] = second compound 3.16 µM, first compound 3.16 µM
[32] = second compound 3.16 µM, first compound 10 µM
[33] = second compound 10 µM, first compound 0.316 µM
[34] = second compound 10 µM, first compound 1 µM
[35] = second compound 10 µM, first compound 3.16 µM
[36] = second compound 10 µM, first compound 10 µM
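Note: spheroids exposed to compounds for seven days before readout.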

CC[C@@]1(O)C(=O)OCc2c1cc1n(c2=O)Cc2cc3c(CN(C)C)c(O)ccc3nc2-1 + Nc1ccc(C#CCN(C(=O)Cc2ncc(C(F)(F)F)cc2C(F)(F)F)c2ccc(F)cc2)nn1
> 0.1 µM: IC50 (second compound 0.0316 µM) | IC50 (second compound 0.1 µM) | IC50 (second compound 0.316 µM) | IC50 (second compound 1 µM) | IC50 (second compound 3.16 µM) | IC50 (second compound 10 µM)
inactive: viability, T/C (second compound 0.0316 µM, first compound 0.000316 µM) 98.9% | viability, T/C (second compound 0.0316 µM, first compound 0.001 µM) 105% | viability, T/C (second compound 0.0316 µM, first compound 0.00316 µM) 105% | viability, T/C (second compound 0.0316 µM, first compound 0.01 µM) 95.1% | viability, T/C [1] 84% | viability, T/C [2] 91.8% | viability, T/C (second compound 0.1 µM, first compound 0.000316 µM) 105% | viability, T/C (second compound 0.1 µM, first compound 0.001 µM) 110% | viability, T/C (second compound 0.1 µM, first compound 0.00316 µM) 97.5% | viability, T/C (second compound 0.1 µM, first compound 0.01 µM) 92.1% | viability, T/C [3] 116% | viability, T/C [4] 114% | viability, T/C (second compound 0.316 µM, first compound 0.000316 µM) 101% | viability, T/C (second compound 0.316 µM, first compound 0.001 µM) 93.8% | viability, T/C (second compound 0.316 µM, first compound 0.00316 µM) 103% | viability, T/C (second compound 0.316 µM, first compound 0.01 µM) 107% | viability, T/C [5] 116% | viability, T/C [6] 69.2% | viability, T/C (second compound 1 µM, first compound 0.000316 µM) 91.2% | viability, T/C (second compound 1 µM, first compound 0.001 µM) 97.2% | viability, T/C (second compound 1 µM, first compound 0.00316 µM) 75.7% | viability, T/C (second compound 1 µM, first compound 0.01 µM) 102% | viability, T/C [7] 98.7% | viability, T/C [8] 74.3% | viability, T/C (second compound 3.16 µM, first compound 0.000316 µM) 97.3% | viability, T/C (second compound 3.16 µM, first compound 0.001 µM) 101% | viability, T/C (second compound 3.16 µM, first compound 0.00316 µM) 82.5% | viability, T/C (second compound 3.16 µM, first compound 0.01 µM) 83.2% | viability, T/C [9] 99.5% | viability, T/C [10] 88.6% | viability, T/C (second compound 10 µM, first compound 0.000316 µM) 97.2% | viability, T/C (second compound 10 µM, first compound 0.001 µM) 92.2% | viability, T/C (second compound 10 µM, first compound 0.00316 µM) 119% | viability, T/C (second compound 10 µM, first compound 0.01 µM) 85.7% | viability, T/C [11] 94.4% | viability, T/C [12] 87.8%

COc1cc(C2c3cc4c(cc3C(OC3OC5COC(C)OC5C(O)C3O)C3COC(=O)C23)OCO4)cc(OC)c1O (stereo unspecified) + Nc1ccc(C#CCN(C(=O)Cc2ncc(C(F)(F)F)cc2C(F)(F)F)c2ccc(F)cc2)nn1
> 10 µM: IC50 (second compound 0.0316 µM) | IC50 (second compound 0.1 µM) | IC50 (second compound 0.316 µM) | IC50 (second compound 1 µM) | IC50 (second compound 3.16 µM) | IC50 (second compound 10 µM)
inactive: viability, T/C [1] 81.1% | viability, T/C [2] 103% | viability, T/C [13] 77.6% | viability, T/C [14] 94.4% | viability, T/C [15] 98.9% | viability, T/C [16] 82.8% | viability, T/C [3] 84.1% | viability, T/C [4] 97% | viability, T/C [17] 103% | viability, T/C [18] 97.4% | viability, T/C [19] 111% | viability, T/C [20] 80.1% | viability, T/C [5] 97% | viability, T/C [6] 127% | viability, T/C [21] 82.2% | viability, T/C [22] 90.7% | viability, T/C [23] 94.9% | viability, T/C [24] 90.6% | viability, T/C [7] 104% | viability, T/C [8] 94.1% | viability, T/C [25] 92.3% | viability, T/C [26] 96.4% | viability, T/C [27] 92.3% | viability, T/C [28] 88.8% | viability, T/C [9] 75.9% | viability, T/C [10] 118% | viability, T/C [29] 84.8% | viability, T/C [30] 93.2% | viability, T/C [31] 107% | viability, T/C [32] 90.5% | viability, T/C [11] 90.8% | viability, T/C [12] 92.9% | viability, T/C [33] 95.2% | viability, T/C [34] 81.2% | viability, T/C [35] 95.8% | viability, T/C [36] 77.1%

O=c1[nH]cc(F)c(=O)[nH]1 + Nc1ccc(C#CCN(C(=O)Cc2ncc(C(F)(F)F)cc2C(F)(F)F)c2ccc(F)cc2)nn1
> 10 µM: IC50 (second compound 0.0316 µM) | IC50 (second compound 0.1 µM) | IC50 (second compound 0.316 µM) | IC50 (second compound 1 µM) | IC50 (second compound 3.16 µM) | IC50 (second compound 10 µM)
inactive: viability, T/C [1] 107% | viability, T/C [2] 101% | viability, T/C [13] 104% | viability, T/C [14] 109% | viability, T/C [15] 102% | viability, T/C [16] 99.5% | viability, T/C [3] 85.5% | viability, T/C [4] 116% | viability, T/C [17] 84.7% | viability, T/C [18] 98% | viability, T/C [19] 109% | viability, T/C [20] 80.2% | viability, T/C [5] 102% | viability, T/C [6] 96.5% | viability, T/C [21] 83% | viability, T/C [22] 89.6% | viability, T/C [23] 108% | viability, T/C [24] 76% | viability, T/C [7] 105% | viability, T/C [8] 85.7% | viability, T/C [25] 95.6% | viability, T/C [26] 120% | viability, T/C [27] 86% | viability, T/C [28] 79.8% | viability, T/C [9] 99.9% | viability, T/C [10] 131% | viability, T/C [29] 101% | viability, T/C [30] 89.3% | viability, T/C [31] 99.1% | viability, T/C [32] 86.9% | viability, T/C [11] 113% | viability, T/C [12] 103% | viability, T/C [33] 95.8% | viability, T/C [34] 96.3% | viability, T/C [35] 88% | viability, T/C [36] 87.1%
